27 compounds from patent publication US20240043395A1, “COMPOUNDS AND COMPOSITIONS AS MODULATORS OF TLR SIGNALING” (Neuropore Therapies, Inc., priority 2020, published 2024) can be followed below.

Assay [1] addresses T1, human TLR2 (Homo sapiens (Human), UniProt O60603). Briefly: HEK-Blue hTLR2 antagonism assay (SEAP reporter), agonist Pam3CSK4. Format: cell-based. As to conditions: HEK-Blue hTLR2 cells; Pam3CSK4 (TLR1/2 agonist) at approx. 3×EC50; 18 h; 8-point dilutions. The protocol: (§1) Synthetic diacylated lipoprotein (Pam2CSK4, TLR2/6 agonist) and synthetic triacylated lipoprotein (Pam3CSK4, TLR1/2 agonist) were obtained from InvivoGen and were dissolved in endotoxin-free water to a concentration 1 mg/mL, vortexed until complete solubilization, and stored in aliquots at −20° C. Prior to addition to cells, an aliquot of the dissolved ligand was vortexed shortly and then was diluted in medium to 25 ng/mL Pam2CSK4 or 1000 ng/mL Pam3CSK4.
(§2) Test compounds were solubilized fresh to 10-20 mM stocks in DMSO and sonicated for 5-10 minutes in a water bath sonicator. Serial dilutions were prepared in DMSO, and then diluted in medium. The final concentration of DMSO used in the assay was 1%.
(§3) HEK-Blue hTLR2 reporter cells (InvivoGen) are HEK-293 cells stably expressing both the human TLR2 gene and a secreted embryonic alkaline phosphatase (SEAP) reporter construct downstream of NFκB promotor sites. HEK-Blue hTLR2 reporters were cultured according to manufacturer's protocol using Dulbecco's Modified Eagle Medium (DMEM; Gibco) containing 1× GlutaMax (Gibco), 10% heat-inactivated Fetal Bovine Serum (Gibco), Pen-Strep (50 U/mL penicillin, 50 μg/mL streptomycin, Gibco), 100 μg/mL Normocin (InvivoGen), and the selective antibiotic, lx HEK-Blue Selection (InvivoGen). Quanti-Blue reagent (InvivoGen) for detection and quantification of secreted alkaline phosphatase was dissolved in 100 mL of endotoxin-free water, warmed to 37° C. for 30 minutes and then filtered using a 0.2 μm membrane.
(§4) On day 1, 50 μL of each test compound dilution in duplicates or a vehicle control was added to each well of a 96-well plate followed by addition of 150 μL of HEK-Blue hTLR2 cell suspension (1×10^5 cells/well) and incubated at 37° C./5% CO2 for 2 h. Next, 50 μL of an approximate 3×EC50 concentration of each agonist (Pam2CSK4 or Pam3CSK4) was added to the wells containing test compounds or the vehicle control. The plates were then incubated at 37° C./5% CO2 for 18 h. For each assay run, non-treated HEK-Blue hTLR2 cells were treated with serial dilutions of agonists to determine EC50 values for the respective run.
(§5) On day 2, secreted alkaline phosphatase (SEAP) activity was detected in cell culture supernatants. In brief, 20 μL was collected from each well and transferred to a 96-well plate. Next, 200 μL of Quanti-Blue detection reagent was added to each well. Plates were incubated at room temperature for 15 min and SEAP activity was assessed by spectrophotometer OD reading at 655 nm. […] IC50 values were calculated based on 8-point dilutions for each compound.

Assay [2] deals with T1, human TLR2. Description: HEK-Blue hTLR2 antagonism assay (SEAP reporter), agonist Pam2CSK4. Format: cell-based. As to conditions: HEK-Blue hTLR2 cells; Pam2CSK4 (TLR2/6 agonist) at approx. 3×EC50; 18 h; 8-point dilutions. The protocol:
as §1, §2, §3, §4, §5

T1 sequence (O60603 21-784): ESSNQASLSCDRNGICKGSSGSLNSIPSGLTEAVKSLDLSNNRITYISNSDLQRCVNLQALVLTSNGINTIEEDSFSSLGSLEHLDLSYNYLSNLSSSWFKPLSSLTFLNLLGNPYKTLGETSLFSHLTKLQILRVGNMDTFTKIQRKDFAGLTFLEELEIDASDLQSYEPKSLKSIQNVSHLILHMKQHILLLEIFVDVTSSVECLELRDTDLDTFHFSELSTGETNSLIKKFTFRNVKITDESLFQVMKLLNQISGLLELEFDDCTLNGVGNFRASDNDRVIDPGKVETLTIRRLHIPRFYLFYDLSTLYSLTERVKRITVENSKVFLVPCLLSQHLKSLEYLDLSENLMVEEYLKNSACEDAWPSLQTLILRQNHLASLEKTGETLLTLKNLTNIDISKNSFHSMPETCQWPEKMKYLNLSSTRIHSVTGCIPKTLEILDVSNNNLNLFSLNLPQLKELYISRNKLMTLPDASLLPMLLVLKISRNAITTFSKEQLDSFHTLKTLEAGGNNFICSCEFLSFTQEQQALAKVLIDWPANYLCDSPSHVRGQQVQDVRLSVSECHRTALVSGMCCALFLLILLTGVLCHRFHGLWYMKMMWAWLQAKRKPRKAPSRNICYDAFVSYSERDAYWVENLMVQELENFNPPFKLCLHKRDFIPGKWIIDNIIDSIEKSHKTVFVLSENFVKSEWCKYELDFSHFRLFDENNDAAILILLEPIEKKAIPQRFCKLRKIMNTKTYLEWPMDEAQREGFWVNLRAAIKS

With `O=Cc1cc(C(=O)Nc2cnc(-c3ccnc(N4CCCC4)c3)s2)cc(F)c1O` [Compound 168, 3-fluoro-5-formyl-4-hydroxy-N-(2-(2-(pyrrolidin-1-yl)pyridin-4-yl)thiazol-5-yl)benzamide], the IC50 at human TLR2 [1] amounted to 9.6 µM; at human TLR2 [2], 15.8 µM.

For the compound `NS(=O)(=O)c1ccc(-c2nsc(-c3cc(F)c(O)c(C=O)c3)n2)cc1` [Compound 170, 4-(5-(3-fluoro-5-formyl-4-hydroxyphenyl)-1,2,4-thiadiazol-3-yl)benzenesulfonamide], the IC50 at human TLR2 [1] turned out to be 5.36 µM; at human TLR2 [2], 17.7 µM.

As to `O=Cc1cc(C(=O)Nc2ccc(N3CCCC3)nn2)cc(F)c1O` [Compound 92, 3-fluoro-5-formyl-4-hydroxy-N-(6-(pyrrolidin-1-yl)pyridazin-3-yl)benzamide], the IC50 at human TLR2 [1] worked out at 39 µM; on human TLR2 [2] it was 59 µM.

For the compound `O=Cc1cc(C(=O)N2CCN(c3ccc(N4CCCC4)nc3)CC2)cc(F)c1O` [Compound 140, 3-fluoro-2-hydroxy-5-(4-(6-(pyrrolidin-1-yl)pyridin-3-yl)piperazine-1-carbonyl)benzaldehyde], the IC50 on human TLR2 [1] worked out at 7.2 µM; at human TLR2 [2], 14 µM.

Consider `O=Cc1cc(C(=O)N2CCOC(c3ccc(N4CCCC4)cc3)C2)cc(F)c1O` (racemic) [Compound 147, 3-fluoro-2-hydroxy-5-(2-(4-(pyrrolidin-1-yl)phenyl)morpholine-4-carbonyl)benzaldehyde], for which the half-maximal inhibitory concentration (IC50) was determined as 1.6 µM on human TLR2 [1] and 4.7 µM at human TLR2 [2].

On to `O=Cc1cc(-c2nc(-c3ccc(N4CCCC4)nc3)ns2)cc(F)c1O` [Compound 130, 3-fluoro-2-hydroxy-5-(3-(6-(pyrrolidin-1-yl)pyridin-3-yl)-1,2,4-thiadiazol-5-yl)benzaldehyde], for which the IC50 at human TLR2 [1] was determined as 0.8 µM; at human TLR2 [2] it was 1.3 µM.

`O=Cc1cc(C(=O)Nc2cnc(N3CCCC3)s2)cc(F)c1O` [Compound 8, 3-fluoro-5-formyl-4-hydroxy-N-(2-(pyrrolidin-1-yl)thiazol-5-yl)benzamide]: the values for the IC50 at human TLR2 [1] and at human TLR2 [2] were 12.9 µM and 17.7 µM, respectively.

With `O=Cc1cc(C(=O)N2CCO[C@H](c3ccc(N4CCCC4)cc3)C2)cc(F)c1O` (single isomer, unassigned) [Compound 149], the IC50 on human TLR2 [1] stood at 1.74 µM; on human TLR2 [2], 4.34 µM.

As for `O=Cc1cc(-c2scnc2-c2ccccc2)cc(F)c1O` [Compound 18, 3-fluoro-2-hydroxy-5-(4-phenylthiazol-5-yl)benzaldehyde], the IC50 is 20.3 µM at human TLR2 [1] and 22.2 µM at human TLR2 [2].

On to `O=Cc1cc(C(=O)N2CCOC(c3cccc(N4CCCC4)c3)C2)cc(F)c1O` (racemic) [Compound 150, rac-3-fluoro-2-hydroxy-5-(2-(3-(pyrrolidin-1-yl)phenyl)morpholine-4-carbonyl)benzaldehyde], for which the IC50 was determined as 3.1 µM at human TLR2 [1] and 7.5 µM on human TLR2 [2].

As for `O=Cc1cc(C(=O)N2CCCN(c3cccc(N4CCCC4)c3)CC2)cc(F)c1O` [Compound 98, 3-fluoro-2-hydroxy-5-(4-(3-(pyrrolidin-1-yl)phenyl)-1,4-diazepane-1-carbonyl)benzaldehyde], the IC50 on human TLR2 [1] turned out to be 18.1 µM; at human TLR2 [2] it was 15.1 µM.

Turning to `O=Cc1cc(C(=O)N2CC(c3ccc(N4CCCC4)cc3)C2)cc(F)c1O` [Compound 84, 3-fluoro-2-hydroxy-5-(3-(4-(pyrrolidin-1-yl)phenyl)azetidine-1-carbonyl)benzaldehyde], the figures for the IC50 at human TLR2 [1] and on human TLR2 [2] were 3.8 µM and 6.2 µM, respectively.

For the compound `O=Cc1cc(C(=O)Nc2ncc(N3CCN(C4CC4)CC3)s2)cc(F)c1O` [Compound 5, N-(5-(4-cyclopropylpiperazin-1-yl)thiazol-2-yl)-3-fluoro-5-formyl-4-hydroxybenzamide], the IC50 is 2.7 µM on human TLR2 [1] and 5.3 µM on human TLR2 [2].

As for `O=Cc1cc(C(=O)Nc2ncc(-c3ccc(C(F)(F)F)cc3)s2)cc(F)c1O` [Compound 115, 3-fluoro-5-formyl-4-hydroxy-N-(5-(4-(trifluoromethyl)phenyl)thiazol-2-yl)benzamide], the IC50 on human TLR2 [1] worked out at 0.6 µM; at human TLR2 [2], 1 µM.

Turning to `O=Cc1cc(-c2nc(-c3ccc(N4CC(F)(F)C4)cc3)ns2)cc(F)c1O` [Compound 169, 5-(3-(4-(3,3-difluoroazetidin-1-yl)phenyl)-1,2,4-thiadiazol-5-yl)-3-fluoro-2-hydroxybenzaldehyde], the IC50 came to 1.3 µM on human TLR2 [1] and 2.5 µM at human TLR2 [2].

On to `CN(C(=O)c1cc(F)c(O)c(C=O)c1)C12CC(c3ccccc3)(C1)C2` [Compound 158, 3-fluoro-5-formyl-4-hydroxy-N-methyl-N-(3-phenylbicyclo[1.1.1]pentan-1-yl)benzamide], for which the IC50 on human TLR2 [1] worked out at 2.25 µM; at human TLR2 [2], 5.9 µM.

As to `O/N=C\c1cc(-c2nc(-c3ccc(N4CCCC4)cc3)ns2)cc(F)c1O` [Compound 171, 3-fluoro-2-hydroxy-5-(3-(4-(pyrrolidin-1-yl)phenyl)-1,2,4-thiadiazol-5-yl)benzaldehyde oxime], the results for the IC50 on human TLR2 [1] and at human TLR2 [2] were 1.03 µM and 2.52 µM, respectively.

As to `O=Cc1cc(-c2nc(-c3ccc(N4CCCC4)cc3)ns2)cc(F)c1OC(=O)N1CCCC1` [Compound 172, 2-fluoro-6-formyl-4-(3-(4-(pyrrolidin-1-yl)phenyl)-1,2,4-thiadiazol-5-yl)phenyl pyrrolidine-1-carboxylate], the results for the IC50 on human TLR2 [1] and on human TLR2 [2] were 0.5 µM and 1 µM, respectively.

Regarding `COCCOCC(=O)Oc1c(F)cc(-c2nc(-c3ccc(N4CCCC4)cc3)ns2)cc1C=O` [Compound 176, 2-fluoro-6-formyl-4-(3-(4-(pyrrolidin-1-yl)phenyl)-1,2,4-thiadiazol-5-yl)phenyl 2-(2-methoxyethoxy)acetate], the IC50 was found to be 0.6 µM on human TLR2 [1] and 2 µM on human TLR2 [2].

`C[n+]1ccccc1Oc1c(F)cc(-c2nc(-c3ccc(N4CCCC4)cc3)ns2)cc1C=O` [Compound 177, 2-(2-fluoro-6-formyl-4-(3-(4-(pyrrolidin-1-yl)phenyl)-1,2,4-thiadiazol-5-yl)phenoxy)-1-methylpyridinium iodide]: the IC50 on human TLR2 [1] turned out to be 0.6 µM; at human TLR2 [2], 1.6 µM.

As to `O=Cc1cc(C(=O)N2CC[C@@H](c3ccc(N4CCCC4)cc3)C2)cc(F)c1O` (single isomer, unassigned) [Compound 157], the IC50 at human TLR2 [1] was found to be 2.2 µM; at human TLR2 [2], 3 µM.

`COc1ccc(C2CN(C(=O)c3cc(F)c(O)c(C=O)c3)CCS2)cc1` (racemic) [Compound 152, rac-3-fluoro-2-hydroxy-5-(2-(4-methoxyphenyl)thiomorpholine-4-carbonyl)benzaldehyde]: the IC50 stood at 5.7 µM on human TLR2 [1] and 14.2 µM at human TLR2 [2].

For `O=Cc1cc(C(=O)Nc2nc(-c3ccccc3)ns2)cc(F)c1O` [Compound 121, 3-fluoro-5-formyl-4-hydroxy-N-(3-phenyl-1,2,4-thiadiazol-5-yl)benzamide], the IC50 stood at 7.9 µM at human TLR2 [1] and 15.9 µM on human TLR2 [2].

With `C[C@H]1[C@H](c2ccc(N3CCCC3)cc2)OCCN1C(=O)c1cc(F)c(O)c(C=O)c1` (racemic) [Compound 151, rac-3-fluoro-2-hydroxy-5-((2S,3S)-3-methyl-2-(4-(pyrrolidin-1-yl)phenyl)morpholine-4-carbonyl)benzaldehyde], the 50% inhibitory concentration (IC50) on human TLR2 [1] was found to be 7 µM; at human TLR2 [2], 16.9 µM.

Take `O=Cc1cc(C(=O)N2CC[C@H](c3ccc(N4CCCC4)cc3)C2)cc(F)c1O` (single isomer, unassigned) [Compound 156]: the IC50 came out at 3.2 µM on human TLR2 [1] and 3.7 µM at human TLR2 [2].

Turning to `CN1CCN(C(=O)Oc2c(F)cc(-c3nc(-c4ccc(N5CCCC5)cc4)ns3)cc2C=O)CC1` [Compound 175, 2-fluoro-6-formyl-4-(3-(4-(pyrrolidin-1-yl)phenyl)-1,2,4-thiadiazol-5-yl)phenyl 4-methylpiperazine-1-carboxylate], the IC50 on human TLR2 [1] was 0.3 µM; on human TLR2 [2], 1.2 µM.

On to `O=Cc1cc(-c2nc(-c3ccc(N4CCCC4)cc3)ns2)cc(F)c1OC(=O)OC1CCOC1` (stereo not drawn) [Compound 162, 2-fluoro-6-formyl-4-(3-(4-(pyrrolidin-1-yl)phenyl)-1,2,4-thiadiazol-5-yl)phenyl tetrahydrofuran-3-yl carbonate], for which the IC50 at human TLR2 [1] is 4.3 µM; on human TLR2 [2] it was 11.5 µM.

The term IC50 denotes the concentration at which inhibition is half-maximal. Lower therefore signals greater potency.
